Measured values taken from publication PMC3126777, “Selective anticancer activity of a hexapeptide with sequence homology to a non-kinase domain of Cyclin Dependent Kinase 4” (Molecular Cancer, 2011).
“Also recorded” adds a separate entry of the source. Like-named read-outs stand apart in the source and are kept apart here.

Assays:
[1] = system: normal diploid human fibroblasts; experiment: In-vitro morphological cell viability screen, normal fibroblasts; type: cell-based; conditions: for effect on normal diploid fibroblasts (in words): 5 mM
Procedure: (§2) A broad search for possible biological activity associated with the [sequence] peptide sequence was initially instituted by screening human bladder cancer cell lines for potential in-vitro morphological changes, compared to control cultures of normal diploid human fibroblasts at 4-8 passages from primary culture as controls. […] The peptides were dissolved, over a range of concentrations, in Ham's F12 + 10% FCS and introduced in 100 μL quantities to microwells containing 500 RT112 bladder cancer cells, or normal diploid human fibroblasts, in 200 μL of Ham's F12 + 10% FCS plated 24 hours earlier on 96 well plates.

[2] = system: RT112 human bladder cancer and H460 human non-small lung cancer cell lines; experiment: Cell killing by cyclic amphiphilic peptides (viability and clonogenic survival); type: cell-based; conditions: for improvement in selective cancer cell cytotoxicity: cyclic amphiphilic cassettes compared with the earlier PRGPRP peptides; for time at which cell killing reached a maximum: for the majority of cell lines
Text: Attempts to limit proteolysis and improve cell uptake, by incorporating the hexameric peptide sequence into cyclic peptide cassettes were undertaken, initially without success (Table 3,X-XIII). Linear constructs attaching PRGPRP to a known cell-internalising amphiphilic sequence were also unsuccessful (Table 3,XIV and 3XV). […] Selective toxicity to these cancer cell lines, and not normal fibroblasts, was retained (Table 4).
(§1) All cell lines were from certified sources.

[3] = system: H460 Human Non-small Cell Lung Cancer
[4] = system: RT112 human bladder cancer cells; experiment: In-vitro morphological cell viability screen, RT112; type: cell-based; conditions: for Cell Viability Human Bladder Cancer: RT112, dose 5.0 mM, Ham's F12 + 10% FCS, morphological appearance
Procedure: as §2

[5] = system: Cdk1 and Cdk4 expression in RT112 cells; experiment: Western blotting of Cdk1 and Cdk4 expression, RT112; type: cell-based, human; conditions: RT112, 5 mM linear end-capped peptide, 0 - 10 days, Western blot
Text: This co-expression is unaffected by cytocidal doses of cisdiamminedichloroplatinum but can accompany spontaneous cancer cell death. Whether or not Cdk1/Cdk4 co-expression remained constant in cancer cells dying as a result of exposure to PRGPRP was thus examined by Western blotting.
as §1

[6] = system: NCI-H460 cells; experiment: Cellular ATP levels (CellTiter-Glo assay); type: cell-based, human; conditions: H460, chloroquine, 96 hours after initial exposure (Figure 7B)
Procedure: Cellular ATP levels (CellTiter-Glo assay) Cells were grown, seeded and compound-treated as for the alamar Blue assay. A volume of the CellTiter-Glo reagent equal to the volume of cell culture media was added to the cells. Plates were mixed for 2 min on an orbital shaker to induce cell lysis before the plate was incubated at room temperature for 10 min to stabilize the signal. The luminescent signal was measured and the media only background was subtracted.

[7] = system: NCI-H460 cells; experiment: Total cellular protein (sulphorhodamine B assay); type: cell-based, human; conditions: H460, chloroquine, 96 hours after initial exposure (Figure 7B)
Procedure: Control medium/alamar blue were removed and 200 μl PBS was added. […] Wells were rinsed with water and allowed to air dry. Cells were then stained in 0.4% SRB solution, before rinsing with 1% acetic acid and air drying. Incorporated dye was solubilised in 10 mM Tris and absorbance measured at 565 nm and 690 nm. Absorbance measurements at 690 nm were subtracted from the 565 nm readings to correct for multi-well plate absorbance.

[8] = system: NCI-H460 cells; experiment: Mitochondrial function (alamar blue); type: cell-based, human; conditions: H460, chloroquine, 96 hours after initial exposure (Figure 7B)
Procedure: Mitochondrial function (alamar blue) NCI-H460 cells were grown in Ham's F12 media supplemented with 10% FCS. Cells were harvested and added to 96-well plates at densities of 250-1000. Compounds were made up from stock solutions and added directly to cells at the concentrations indicated. Cells were grown with compound for the indicated time at 37°C, 5% CO2, in a humidified atmosphere. Alamar Blue 10% (v/v) was then added and incubated for a further 4 h, and fluorescent product detected using the BMG FLUOstar plate reader. The media only background was subtracted and the data analysed as appropriate.

[9] = system: H460 cells; experiment: Autophagy Assay (Cyto-ID Green, flow cytometry); type: cell-based, human; conditions: H460, 25 μM, positive control, 72 h and 96 h
Procedure: Autophagy Assay was performed as recommended by the manufacturers' instructions (Enzo ENZ-51031-[…]). Briefly, H460 cells were seeded into 6 well plates at 2.5 × 10^5 and 1 × 10^5 cells/well. Immediately after cell plating, chloroquine or […] were added at the concentrations indicated. Following compound treatment, cells were washed once in PBS and resuspended in x1 Cyto-ID Green autophagy detection reagent and incubated at room temperature for 30 min. Immediately prior to analysis, propidium iodide (PI) solution was added to the cell suspension at a final concentration of 2.5 μg/ml, to assess cell death. Analysis was carried out using FACSCalibur (BD Biosciences). Cyto-ID Green autophagy reagent was measured in the FL-1 channel (530/30 nm bandpass filters with excitation at 488 nm) and PI measured in the FL-3 channel (670 nm longpass filters with excitation at 488 nm).

[10] = system: H460 human non-small cell lung cancer cells; experiment: Necrosis assay by Trypan Blue exclusion, H460; type: cell-based; conditions: H460, 200 μM, 2, 3, 4 and 7 days after plating, triplicate wells
Procedure: Necrosis Assay Cells were plated in triplicate in 96 well plates at concentrations of 500 cells per well (HT1299, MCF-7) or 1000 cells per well (H460, MRC5-hTERT) in the presence or absence of the relevant compound and assessed by Trypan Blue exclusion At 2,3,4 and 7 days after plating. To assay, cells were trypsinised off, stained with trypan blue in isotonic medium and live and dead cells separately counted visually by haemocytomter. Each data point is the mean of results from triplicate wells (Solid lines - Live cells, Broken lines - Dead Cells; Blue - Control, Red - THR53 200 μM).

[11] = dose 5.0 mM, Ham's F12 + 10% FCS, morphological appearance

| Molecule | Cell Viability Human Bladder Cancer [4] | Cell Viability Normal Diploid Fibroblasts [1, 11] | Cell Viability Human Non-small Cell Lung Cancer ([3]; H460, dose 200 μM) | Cell Viability Normal Diploid Fibroblasts ([1]; dose 200 μM) | other results |
| --- | --- | --- | --- | --- | --- |
| Cyc-[PRGPRPvalklalklal] (head to tail) [THR79] |  |  |  |  | Cell Viability Normal Diploid Fibroblasts ([1]; dose 50 μM): + + +; improvement in selective cancer cell cytotoxicity [2]: fifty- to a hundred-fold improvement; time at which cell killing reached a maximum [2]: ≤ 4 days; Cell Viability Human Non-small Cell Lung Cancer ([3]; H460, dose 50 μM): _ _ _ |
| PRGPEP [VIII, hexapeptide with arginine substituted by glutamic acid] | + + + | + + + |  |  | toxicity to RT112 human bladder cancer cells (in words) ([4]; 5 mM): lacked cytotoxic activity; effect on normal diploid fibroblasts (in words) [1]: no effect |
| Cyc-[PRGPR(Me)PVALKLALKLAL] (head to tail) [XXI] |  |  | ++ + |  |  |
| Ac-PRGPRP-NH2 [THR1, linear N'-capped PRGPRP-amide hexapeptide] | - - - | + + + + + |  |  | toxicity to RT112 human bladder cancer cells (in words) ([4]; 5 mM): greater selective toxicity; also recorded: complete necrosis; effect on normal diploid fibroblasts (in words) [1]: stimulates normal fibroblast growth; also recorded: increases the confluent cell density; Cdk1 expression compared to Cdk4 [5]: progressive rise |
| RGPRP [IV, linear N'-capped synthetic pentapeptide amide RGPRP] |  | + + + |  |  | toxicity to RT112 human bladder cancer cells (in words) ([4]; 5 mM): greater selective toxicity; effect on normal diploid fibroblasts (in words) [1]: sparing normal diploid fibroblasts |
| PEGPRP [VII, hexapeptide with arginine substituted by glutamic acid] | + + + | + + + |  |  | toxicity to RT112 human bladder cancer cells (in words) ([4]; 5 mM): lacked cytotoxic activity; effect on normal diploid fibroblasts (in words) [1]: no effect |
| FPPRGPRPVQ [I] |  |  |  |  | toxicity to RT112 human bladder cancer cells (in words) ([4]; 1.0 mM): selectively toxic; effect on normal fibroblasts (in words) ([1]; 1.0 mM): partial sparing; Cell Viability Normal Diploid Fibroblasts ([1]; dose 1.0 mM, Ham's F12 + 10% FCS, morphological appearance): + +/- |
| RGPR [V, shorter linear peptide RGPR] | + + + | + + + |  |  | toxicity to RT112 human bladder cancer cells (in words) ([4]; 5 mM): inactive |
| Cyc-[GGGGGGPRGPRPGGGGGG] (head to tail) [XI] |  |  | + + + | + + + |  |
| CCN(CC)CCCC(C)Nc1ccnc2cc(Cl)ccc12 (centres unmarked) [Chloroquine, reference compound] |  |  |  |  | ATP levels [6]: ubiquitous effect; total cellular protein [7]: ubiquitous effect; mitochondrial oxidation/reduction [8]: ubiquitous effect; autophagy, Cyto-ID Green FL-1 peak [9]: increase in autophagy |
| Cyc-[FPPRRPGPVKLALKLALK] (head to tail) [THR53C] |  |  | + + + | + + + | necrosis detected by trypan blue uptake [10]: not with THR53C |
| Cyc-[AAGPGGPRGPRPGGPGAA] (head to tail) [XIII] |  |  | + + + | + + + |  |
| Cyc-GGGGGGPRGPRPGGGGGG] (head to tail) [XII] |  |  | + + + | + + + |  |
| Linear FPPRGPRPVKLALKLALK [XIV] |  |  | + + + | + + + |  |
| Cyc-[AAAGGGPRGPRPGGGAAA] (head to tail) [X] |  |  | + + + | + + + |  |
| Linear PRGPRPVALKLALKLAL [XV] |  |  | + + + | + + + |  |
| PRRPGP [VI, linear end-capped hexapeptide PRRPGP, one arginine transposed] | + + + | + + + |  |  | toxicity to RT112 human bladder cancer cells (in words) ([4]; 5 mM): markedly diminishes RT112 human bladder cancer cell killing; Cdk1 expression compared to Cdk4 [5]: not PRRPGP |
| Cyc-[PRGPRPVALKLALKLAL] (head to tail) [THR54] |  |  |  |  | Cell Viability Normal Diploid Fibroblasts ([1]; dose 100 μM): + + +; improvement in selective cancer cell cytotoxicity [2]: fifty- to a hundred-fold improvement; time at which cell killing reached a maximum [2]: ≤ 4 days; Cell Viability Human Non-small Cell Lung Cancer ([3]; H460, dose 100 μM): _ _ _ |
| Cyc-[PR(Me)GPRPVALKLALKLAL] (head to tail) [XX] |  |  | + +/- |  |  |
| PRGPR [III, linear N'-capped synthetic peptide amide PRGPR] | - - - | + + + |  |  |  |
| PEGPEP [IX, hexapeptide with both arginines substituted by glutamic acid] | + + + | + + + |  |  |  |
